Data set [1] has as its target T1, JAK3 enzyme (Homo sapiens, UniProt P52333).
T1 sequence (P52333 1-1124): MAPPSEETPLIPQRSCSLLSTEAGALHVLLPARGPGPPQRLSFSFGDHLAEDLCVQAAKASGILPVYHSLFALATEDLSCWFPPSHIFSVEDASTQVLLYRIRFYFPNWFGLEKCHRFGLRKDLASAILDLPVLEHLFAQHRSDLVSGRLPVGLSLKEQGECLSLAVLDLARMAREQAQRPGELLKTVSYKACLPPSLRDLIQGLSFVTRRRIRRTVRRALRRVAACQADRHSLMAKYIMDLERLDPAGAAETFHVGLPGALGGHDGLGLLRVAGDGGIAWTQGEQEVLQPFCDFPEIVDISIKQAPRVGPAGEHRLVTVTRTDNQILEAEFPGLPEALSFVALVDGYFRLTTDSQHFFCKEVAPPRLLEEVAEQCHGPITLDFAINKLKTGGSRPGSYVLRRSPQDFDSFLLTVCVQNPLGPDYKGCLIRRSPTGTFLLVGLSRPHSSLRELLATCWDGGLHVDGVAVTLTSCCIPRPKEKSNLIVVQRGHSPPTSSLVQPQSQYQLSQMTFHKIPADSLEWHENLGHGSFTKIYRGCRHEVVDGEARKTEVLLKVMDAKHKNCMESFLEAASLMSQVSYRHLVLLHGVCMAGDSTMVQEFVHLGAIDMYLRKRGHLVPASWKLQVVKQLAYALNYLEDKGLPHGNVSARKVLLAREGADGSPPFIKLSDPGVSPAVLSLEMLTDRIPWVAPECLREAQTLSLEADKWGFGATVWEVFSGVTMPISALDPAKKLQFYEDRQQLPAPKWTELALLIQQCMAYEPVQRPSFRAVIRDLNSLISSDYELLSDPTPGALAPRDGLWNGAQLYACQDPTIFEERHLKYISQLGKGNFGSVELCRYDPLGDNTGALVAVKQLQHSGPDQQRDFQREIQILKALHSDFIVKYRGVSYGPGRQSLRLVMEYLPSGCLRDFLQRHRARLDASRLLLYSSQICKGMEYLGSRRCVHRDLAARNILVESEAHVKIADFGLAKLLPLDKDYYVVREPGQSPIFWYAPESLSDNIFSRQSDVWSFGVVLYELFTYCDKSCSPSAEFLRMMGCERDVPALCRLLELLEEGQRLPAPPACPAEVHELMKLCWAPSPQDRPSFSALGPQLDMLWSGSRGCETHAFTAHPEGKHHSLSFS
Briefly: JAK Caliper Enzyme Assay at 1 mM ATP. It counts as biochemical. The procedure, abridged: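 First, compound stocks in DMSO were serially diluted half-log over 11 points, starting at 600 μM. Next, reactions ran with batch-optimized enzyme and timing targeting 20%-30% phosphorylation. Finally, wells were sampled and product separated from substrate peptide electrophoretically.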

A short description of data set [2]: Stability of JAK3 Covalent Inhibitors in Human Whole Blood. Format: in vitro ADME. As to conditions: both sexes, 1 μM test compound, 37° C., 180 min incubation, read-out: Human blood stability t1/2. The procedure, abridged: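 Compound at 1 μM final incubated in duplicate at 37° C for 180 min in fresh K2-EDTA whole blood […]. Samples quenched in acetonitrile with internal standard; LC-MS/MS peak area ratios gave % parent remaining over time.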

This is an account of results in patent US10703756B2, “Pyrrolo[2,3-D]pyrimidinyl, pyrrolo[2,3-B]pyrazinyl, pyrrolo[2,3-B]pyridinyl acrylamides and epoxides thereof” (Pfizer Inc., priority 2015, dated 2020).

By IC50 is commonly meant the concentration that gives 50% inhibition. High values mean lower potency, low ones higher potency.

Molecule `C=CC(=O)N1CC[C@@H](Nc2cnc3[nH]cc(C(=O)NCC)c3n2)[C@H](C)C1` (single isomer, unassigned) [Example 44] showed an IC50 in data set [1] of 47 nM. Moreover, the half-life at 1 μM in data set [2] stood at 4.27 h.

In data set [1], `C=CC(=O)N1CCC(Oc2cnc3[nH]cc(C(=O)N[C@H]4CC[C@@H](F)C4)c3n2)CC1` [Example 225, 2-[(1-acryloylpiperidin-4-yl)oxy]-N-[(1S,3R)-3-fluorocyclopentyl]-5H-pyrrolo[2,3-b]pyrazine-7-carboxamide] showed an IC50 of 25 nM. Moreover, the half-life at 1 μM in data set [2] is 3.93 h.

The molecule `C=CC(=O)N1CCN(c2cnc3[nH]cc(C(=O)N[C@@H](C)COC)c3n2)CC1` [Example 295, 2-(4-acryloylpiperazin-1-yl)-N-[(2S)-1-methoxypropan-2-yl]-5H-pyrrolo[2,3-b]pyrazine-7-carboxamide] gave an IC50 in data set [1] of 29 nM. For the same molecule, in data set [2], the half-life at 1 μM came to 2.22 h.

Molecule `C=CC(=O)N1CCN(c2cnc3[nH]cc(C(=O)N[C@H]4CCO[C@H]4C)c3n2)CC1(C)C` [Example 166, 3-({[2-(4-acryloyl-3,3-dimethylpiperazin-1-yl)-5H-pyrrolo[2,3-b]pyrazin-7-yl]carbonyl}amino)-2,5-anhydro-1,3,4-trideoxy-L-threo-pentitol] displayed an IC50 in data set [1] of 58 nM. Besides, in data set [2], the half-life at 1 μM was above 6 h.

Molecule `C=CC(=O)N1CC(CF)CC(Nc2ncnc3[nH]ccc23)C1` (mixture of isomers) [Example 102, Cis-racemic-1-[3-(fluoromethyl-5-(7H-pyrrolo[2,3-d]pyrimidin-4-ylamino)piperidin-1-yl]prop-2-en-1-one] came in with an IC50 in data set [1] of 142 nM. Further, the half-life at 1 μM in data set [2] turned out to be 2.02 h.

In data set [1], `C=CC(=O)N1CC[C@H](Nc2cnc3[nH]cc(C(=O)NCC)c3n2)C[C@H]1C` (single isomer, unassigned) [Example 41] registered an IC50 of 22 nM. The half-life at 1 μM in data set [2] came out at 3.75 h.

Take `C=CC(=O)N1CCC(C)(Nc2cnc3[nH]cc(C(=O)NC4CCC4)c3n2)CC1` [Example 324, 2-[(1-acryloyl-4-methylpiperidin-4-yl)amino]-N-cyclobutyl-5H-pyrrolo[2,3-b]pyrazine-7-carboxamide]: half-maximal inhibition in data set [1] (IC50) was put at 21 nM. Further, the half-life at 1 μM in data set [2] is 4.3 h.

`C=CC(=O)N1CCN(c2cnc3[nH]cc(C(=O)N[C@H](C)COC)c3n2)CC1` [Example 332] came in with an IC50 in data set [1] of 22 nM. Moreover, the half-life at 1 μM in data set [2] came out at 2.42 h.

In turn, `C=CC(=O)N1CCC(Oc2cnc3[nH]cc(C(=O)N[C@H](C)COC)c3n2)CC1` [Example 214, 2-[(1-acryloylpiperidin-4-yl)oxy]-N-[(2R)-1-methoxypropan-2-yl]-5H-pyrrolo[2,3-b]pyrazine-7-carboxamide] yielded an IC50 in data set [1] of 20 nM. Further, in data set [2], the half-life at 1 μM was 4.79 h.

As for `C=CC(=O)N1CCC(Nc2cnc3[nH]cc(C(=O)NCc4ccc(F)cc4)c3n2)CC1` [Example 188, 2-[(1-acryloylpiperidin-4-yl)amino]-N-(4-fluorobenzyl)-5H-pyrrolo[2,3-b]pyrazine-7-carboxamide], half-maximal inhibition in data set [1] (IC50) required 6 nM. The half-life at 1 μM in data set [2] was above 6 h.

`C=CC(=O)N1CC[C@@H](Oc2cnc3[nH]cc(C(=O)NCC)c3n2)C[C@@H]1C` (racemic) [Example 77, Trans-racemic-2-{[1-acryloyl-2-methylpiperidin-4-yl]oxy}-N-ethyl-5H-pyrrolo[2,3-b]pyrazine-7-carboxamide] yielded an IC50 in data set [1] of 115 nM. Also, the half-life at 1 μM in data set [2] is above 5.34 h.

As for `C=CC(=O)N1CC[C@H](Nc2cnc3[nH]cc(C(=O)NCC)c3n2)[C@H](OC)C1` [Example 326, 2-{[(3R,4S)-1-acryloyl-3-methoxypiperidin-4-yl]amino}-N-ethyl-5H-pyrrolo[2,3-b]pyrazine-7-carboxamide], the IC50 in data set [1] came out at 50 nM. The half-life at 1 μM in data set [2] was above 6 h.

In data set [1], `C=CC(=O)N1CCC(Nc2cnc3[nH]cc(C(=O)NCC4CC4)c3n2)CC1` [Example 172, 2-[(1-acryloylpiperidin-4-yl)amino]-N-(cyclopropylmethyl)-5H-pyrrolo[2,3-b]pyrazine-7-carboxamide] showed an IC50 of 5 nM. Moreover, the half-life at 1 μM in data set [2] is 5.43 h.

In turn, `C=CC(=O)N1CC[C@H](Nc2cnc3[nH]cc(C(=O)NCC4CCCC4)c3n2)[C@H](OC)C1` [Example 284, 2-{[(3R,4S)-1-acryloyl-3-methoxypiperidin-4-yl]amino}-N-(cyclopentylmethyl)-5H-pyrrolo[2,3-b]pyrazine-7-carboxamide] showed an IC50 in data set [1] of 42 nM. Besides, the half-life at 1 μM in data set [2] was above 6 h.

As to `C=CC(=O)N1CCC(Nc2cnc3[nH]cc(C(=O)NCc4ccccc4)c3n2)CC1` [Example 187, 2-[(1-acryloylpiperidin-4-yl)amino]-N-benzyl-5H-pyrrolo[2,3-b]pyrazine-7-carboxamide], the IC50 in data set [1] was found to be 6 nM. The half-life at 1 μM in data set [2] is above 6 h.

With `C=CC(=O)N1CC[C@@H](Nc2cnc3[nH]cc(C(=O)NCC)c3n2)[C@@H](C)C1` (single isomer, unassigned) [Example 38], in data set [1], the IC50 stood at 30 nM. Further, the half-life at 1 μM in data set [2] worked out at 4.38 h.

In data set [1], `C=CC(=O)N1C[C@H](CN2CC[C@H](C#N)C2)C[C@H](Nc2ncnc3[nH]ccc23)C1` [Example 108, (S)-1-(((3S,5S)-5-((7H-pyrrolo[2,3-d]pyrimidin-4-yl)amino)-1-acryloylpiperidin-3-yl)methyl)pyrrolidine-3-carbonitrile] had an IC50 of 136 nM. In data set [2], the half-life at 1 μM came out at 2.23 h.

On to `C=CC(=O)N1CC[C@H](Nc2cnc3[nH]cc(C(=O)NCC(F)(F)F)c3n2)[C@H](OC)C1` [Example 293, 2-{[(3R,4S)-1-acryloyl-3-methoxypiperidin-4-yl]amino}-N-(2,2,2-trifluoroethyl)-5H-pyrrolo[2,3-b]pyrazine-7-carboxamide], for which 51 nM corresponded to half-maximal inhibition in data set [1] (IC50). In data set [2], the half-life at 1 μM amounted to 3.4 h.

Molecule `C=CC(=O)N1CC[C@@H](Nc2cnc3[nH]cc(C(=O)NCC(C)(F)F)c3n2)[C@@H](OC)C1` [Example 321, 2-{[(3S,4R)-1-acryloyl-3-methoxypiperidin-4-yl]amino}-N-(2,2-difluoropropyl)-5H-pyrrolo[2,3-b]pyrazine-7-carboxamide] yielded an IC50 in data set [1] of 46 nM. Also, the half-life at 1 μM in data set [2] was above 6 h.

In data set [1], `C=CC(=O)N1CCC(Oc2cnc3[nH]cc(C(=O)NC(C)(C)CC)c3n2)CC1` [Example 209, 2-[(1-acryloylpiperidin-4-yl)oxy]-N-(2-methylbutan-2-yl)-5H-pyrrolo[2,3-b]pyrazine-7-carboxamide] registered an IC50 of 64 nM. Further, in data set [2], the half-life at 1 μM turned out to be 4.45 h.

In data set [1], `C=CC(=O)N1C[C@@H](CC#N)C[C@@H](Nc2ncnc3[nH]ccc23)C1` (racemic) [Example 105, Cis-racemic-[1-acryloyl-5-(7H-pyrrolo[2,3-d]pyrimidin-4-ylamino)piperidin-3-yl]acetonitrile] returned an IC50 of 54 nM. In addition, the half-life at 1 μM in data set [2] was determined as 2.3 h.

As for `C=CC(=O)N1CCN(c2cnc3[nH]cc(C(=O)NCC(C)C)c3n2)C[C@@H]1CC(C)C` [Example 288, 2-[(3S)-4-acryloyl-3-(2-methylpropyl)piperazin-1-yl]-N-(2-methylpropyl)-5H-pyrrolo[2,3-b]pyrazine-7-carboxamide], in data set [1], half-maximal inhibition (IC50) was put at 57 nM. In data set [2], the half-life at 1 μM is above 6 h.

`C=CC(=O)N1CCC(Nc2cnc3[nH]cc(C(=O)NCc4cccc(F)c4)c3n2)CC1` [Example 176, 2-[(1-acryloylpiperidin-4-yl)amino]-N-(3-fluorobenzyl)-5H-pyrrolo[2,3-b]pyrazine-7-carboxamide] yielded an IC50 in data set [1] of 3 nM. The half-life at 1 μM in data set [2] was found to be 4.85 h.

Turning to `C=CC(=O)N1CC[C@@H](Oc2cnc3[nH]cc(C(=O)N[C@@H](C)COC)c3n2)C[C@@H]1C` (racemic) [Example 71, Trans-racemic-2-{[1-acryloyl-2-methylpiperidin-4-yl]oxy}-N-[(2S)-1-methoxypropan-2-yl]-5H-pyrrolo[2,3-b]pyrazine-7-carboxamide], the IC50 in data set [1] was 54 nM. Moreover, the half-life at 1 μM in data set [2] came to 5.15 h.
